Results: ChEMBL document CHEMBL5532758, “Deuterium labeling improves the therapeutic index of 3,3'-diselenodipropionic acid as an anticancer agent: insights from redox reactions” (RSC Med Chem, 2024)
Active and inactive are the calls of the source. The calls are words filed in the database; no cut-off is given here.

What was measured:
[1] = Therapeutic index, ratio of IC50 for cytotoxicity against human MCF10A cells to IC50 for antiproliferative activity against human NCI-H1975 cells by MTT assay; type: toxicity, cell-based; details: MCF10A cells versus NCI-H1975 cells, read-out: Ratio IC50
[2] = Therapeutic index, ratio of IC50 for cytotoxicity against human MCF-10A cells to IC50 for antiproliferative activity against human A549 cells by MTT assay; type: toxicity, cell-based; details: MCF-10A cells versus A549 cells, read-out: Ratio IC50
[3] = Therapeutic index, ratio of IC50 for cytotoxicity against human WI-26 AV4 cells to IC50 for antiproliferative activity against human A549 cells by MTT assay; type: toxicity, cell-based; details: WI-26 AV4 cells versus A549 cells, read-out: Ratio IC50
[4] = Therapeutic index, ratio of IC50 for cytotoxicity against human Intestine 407 cells to IC50 for antiproliferative activity against human A549 cells by MTT assay; type: toxicity, cell-based; details: Intestine 407 cells versus A549 cells, read-out: Ratio IC50
[5] = Upregulation of TrxR1 mRNA expression in human WI-38 cells at 10 uM incubated for 24 hrs by real-time PCR analysis relative to control; type: functional
[6] = Increase in TxrR activity in human WI-38 cells at 10 uM incubated for 24 hrs relative to control; type: functional
[7] = Therapeutic index, ratio of IC50 for cytotoxicity against human WI-38 cells to IC50 for antiproliferative activity against human NCI-H3122 cells by MTT assay; type: toxicity, cell-based; details: WI-38 cells versus NCI-H3122 cells, read-out: Ratio IC50
[8] = test system: A549; experiment: Anti-clonogenic activity against human A549 cells assessed as reduction in size and number of surviving clones incubated for 7 days by crystal violet staining method; type: functional, cell-based; details: A549, 168 h
[9] = Upregulation of GPx1 mRNA expression in human WI-38 cells at 10 uM incubated for 24 hrs by real-time PCR analysis relative to control; type: functional
[10] = Cytotoxicity against human MCF-10A cells assessed as inhibition of cell proliferation incubated for 48 hrs by MTT assay; type: toxicity, cell-based
[11] = Cytotoxicity against human Intestine 407 cells assessed as inhibition of cell proliferation incubated for 48 hrs by MTT assay; type: toxicity, cell-based
[12] = Drug reduction in DMSO-d6 in presence of 1 equiv. NAC by 77Se NMR spectroscopy; type: physicochemical
[13] = Therapeutic index, ratio of IC50 for cytotoxicity against human Intestine 407 cells to IC50 for antiproliferative activity against human NCI-H3122 cells by MTT assay; type: toxicity, cell-based; details: Intestine 407 cells versus NCI-H3122 cells, read-out: Ratio IC50
[14] = Increase in GPx activity in human WI-38 cells at 10 uM incubated for 24 hrs relative to control; type: functional
[15] = Therapeutic index, ratio of IC50 for cytotoxicity against human WI-26 AV4 cells to IC50 for antiproliferative activity against human NCI-H1975 cells by MTT assay; type: toxicity, cell-based; details: WI-26 AV4 cells versus NCI-H1975 cells, read-out: Ratio IC50
[16] = Therapeutic index, ratio of IC50 for cytotoxicity against human WI-26 AV4 cells to IC50 for antiproliferative activity against human NCI-H3122 cells by MTT assay; type: toxicity, cell-based; details: WI-26 AV4 cells versus NCI-H3122 cells, read-out: Ratio IC50
[17] = test system: WI-38; experiment: Radioprotective activity against human WI-38 cells assessed as recovery of radiation-induced decrease in TrxR activity at 10 uM pretreated for 24 hrs followed by irradiation with gamma radiation for 24 hrs; type: functional, cell-based; details: time 48.0 hrs
[18] = test system: GR; experiment: Reduction in intracellular activity of GR in human WI-38 cells at 150 uM incubated for 24 hrs relative to control; type: toxicity, cell-based
[19] = test system: WI-38; experiment: Cytotoxicity against human WI-38 cells assessed as reduction in size and number of surviving clones incubated for 7 days by crystal violet staining method; type: toxicity, cell-based
[20] = Therapeutic index, ratio of IC50 for cytotoxicity against human Intestine 407 cells to IC50 for antiproliferative activity against human NCI-H1975 cells by MTT assay; type: toxicity, cell-based; details: Intestine 407 cells versus NCI-H1975 cells, read-out: Ratio IC50
[21] = Therapeutic index, ratio of IC50 for cytotoxicity against human WI-38 cells to IC50 for antiproliferative activity against human A549 cells by MTT assay; type: toxicity, cell-based; details: WI-38 cells versus A549 cells, read-out: Ratio IC50
[22] = Therapeutic index, ratio of IC50 for cytotoxicity against human MCF-10A cells to IC50 for antiproliferative activity against human NCI-H3122 cells by MTT assay; type: toxicity, cell-based; details: MCF-10A cells versus NCI-H3122 cells, read-out: Ratio IC50
[23] = Therapeutic index, ratio of IC50 for cytotoxicity against human WI-38 cells to IC50 for antiproliferative activity against human NCI-H1975 cells by MTT assay; type: toxicity, cell-based; details: WI-38 cells versus NCI-H1975 cells, read-out: Ratio IC50
[24] = Drug reactivity with Hypochlorous acid (HOCl) assessed as rate constant by CBA based competition assay; type: physicochemical
[25] = Cytotoxicity against human WI-26 AV4 cells assessed as inhibition of cell proliferation incubated for 48 hrs by MTT assay; type: toxicity, cell-based
[26] = Drug reactivity with H2O2 assessed as rate constant by absorbance based analysis; type: physicochemical
[27] = test system: NCI-H1975; experiment: Antiproliferative activity against human NCI-H1975 cells assessed as inhibition of cell proliferation incubated for 48 hrs by MTT assay; type: functional, cell-based; details: NCI-H1975, 48 h
[28] = test system: WI-38; experiment: Upregulation of GPx1 mRNA expression in human WI-38 cells at 10 uM incubated for 6 hrs by real-time PCR analysis; type: functional, cell-based
[29] = test system: GST; experiment: Reduction in intracellular activity of GST in human WI-38 cells at 150 uM incubated for 24 hrs relative to control; type: toxicity, cell-based
[30] = Cytotoxicity against human WI-38 cells assessed as inhibition of cell proliferation incubated for 48 hrs by MTT assay; type: toxicity, cell-based
[31] = test system: WI-38; experiment: Radioprotective activity against human WI-38 cells assessed as recovery of radiation-induced decrease in GPx activity at 10 uM pretreated for 24 hrs followed by irradiation with gamma radiation for 24 hrs; type: functional, cell-based; details: time 48.0 hrs
[32] = test system: A549; experiment: (§1) Radiosensitization activity against human A549 cells assessed as potentiation of radiation-induced cytotoxicity by measuring dose modification factor at 0.5 uM pre-irradiated with gamma radiation at 4.5 Gy followed by incubation with drug and measured after 7 days by clonogenic assay relative to control; type: functional; details: time 7 day
[33] = Drug reactivity with trichloromethyl peroxyl radical (CCl3O2.) assessed as rate constant by ABTS2- based competition assay; type: physicochemical
[34] = test system: A549; experiment: Antiproliferative activity against human A549 cells assessed as inhibition of cell proliferation incubated for 48 hrs by MTT assay; type: functional, cell-based; details: A549, 48 h
[35] = Upregulation of TrxR1 mRNA expression in human WI-38 cells at 10 uM incubated for 6 hrs by real-time PCR analysis relative to control; type: functional
[36] = test system: WI-38; experiment: Radioprotective activity against human WI-38 cells assessed as inhibition of radiation-induced cytotoxicity by measuring dose modification factor at 0.5 uM incubated for 24 hrs followed by irradiation with gamma radiation at 2 to 12 Gy by clonogenic assay relative to control; type: functional
[37] = test system: NCI-H3122; experiment: Antiproliferative activity against human NCI-H3122 cells assessed as inhibition of cell proliferation incubated for 48 hrs by MTT assay; type: functional, cell-based; details: NCI-H3122, 48 h
[38] = test system: A549; experiment: as §1, with “4” for “4.5”; type: functional; details: time 7 day

Work on `O=C(O)CC[Se][Se]CCC(=O)O` yielded a selectivity ratio [1] of 5.7, a selectivity ratio [2] of 4 and a selectivity ratio [3] of 9.9. The selectivity ratio [4] was 31.7, the “fold change (FC)” value [5] was about 6.06 and the “fold change (FC)” value [6] was about 2. The selectivity ratio [7] was 7.9, the IC50 [8] was 1.2 µM and the “fold change (FC)” value [9] was about 1.73. The IC50 at 48 h [10] was 61.2 µM, the IC50 at 48 h [11] was 483 µM and the Drug metabolism [12] was “Metabolite_Notdetected”. The selectivity ratio [13] was 3.2, the “fold change (FC)” value [14] was about 1.34 and the selectivity ratio [15] was 14.2. For the same molecule, the selectivity ratio [16] was 7, the Activity [17] was “Active” and the Activity ([17]; tested as the 2H-labelled form) was “Active”. It also gave an inhibition at 24 h, 150 µM [18] of 32%, an IC50 [19] of 17.9 µM and a selectivity ratio [20] of 32.5. It also gave a selectivity ratio [21] of 11.2, a selectivity ratio [22] of 2.8 and a selectivity ratio [23] of 16.1. For the same molecule, the K [24] was 1.6 10^5/M/s, the IC50 at 48 h [25] was 151 µM and the K [26] was 5.2 10^-2/M/s. For the same molecule, the IC50 [27] was 10.6 µM, the Activity [28] was “inactive” and the Activity ([28]; tested as the 2H-labelled form) was “inactive”. For the same molecule, the inhibition at 24 h, 150 µM [29] was 24%, the IC50 at 48 h [30] was 171 µM and the Activity [31] was “Active”. The Activity ([31]; tested as the 2H-labelled form) was “Active”, the Ratio [32] was 0.87 and the K [33] was 1 10^8/M/s. The IC50 [34] was 15.2 µM, the “fold change (FC)” value [35] was about 4.02 and the Ratio [36] was 1.12. The IC50 [37] was 21.5 µM.
With `[2H]C([2H])([Se][Se]C([2H])([2H])C([2H])([2H])C(=O)O)C([2H])([2H])C(=O)O` the selectivity ratio [1] was 45.5, the selectivity ratio [2] was 9.8 and the selectivity ratio [3] was 36.2. The selectivity ratio [4] was 33.3, the “fold change (FC)” value [5] was about 5.17 and the “fold change (FC)” value [6] was about 1.71. The selectivity ratio [7] was 21.5, the IC50 [8] was 0.9 µM and the “fold change (FC)” value [9] was about 1.69. It also gave an IC50 at 48 h [10] of 150 µM, an IC50 at 48 h [11] of 507 µM and a selectivity ratio [13] of 10.8. The “fold change (FC)” value [14] was about 1.53, the selectivity ratio [15] was 120 and the selectivity ratio [16] was 11.8. For the same molecule, the inhibition at 24 h, 150 µM [18] was 13%, the IC50 [19] was 35.5 µM and the selectivity ratio [20] was 110. For the same molecule, the selectivity ratio [21] was 65.7, the selectivity ratio [22] was 22.4 and the selectivity ratio [23] was 217. For the same molecule, the K [24] was 9.5 10^4/M/s, the Ratio [38] was 0.83 and the IC50 at 48 h [25] was 550 µM. For the same molecule, the K [26] was 3.3 10^-2/M/s, the IC50 [27] was 4.6 µM and the inhibition at 24 h, 150 µM [29] was 8%. The IC50 at 48 h [30] was 1000 µM, the K [33] was 0.8 10^8/M/s and the IC50 [34] was 15.2 µM. The “fold change (FC)” value [35] was about 2.04, the Ratio [36] was 1.16 and the IC50 [37] was 46.5 µM.
